Experimental data published in paper PMC4472782, “Antibacterial Characterization of Novel Synthetic Thiazole Compounds against Methicillin-Resistant Staphylococcus pseudintermedius” (PLoS ONE, 2015).
≈ marks a conversion by molar mass, not a printed value. Structures can show the parent of a compound that is named as a salt. Where two headings read alike, the source gives them in different places.

Key:
MRSP SP3 [1] = test: Post-antibiotic effect against MRSP; type: cell-based, Staphylococcus pseudintermedius; settings: 4 × MIC for one hour
Procedure: A tube containing untreated bacterial cells served as a control. Afterward, the compound/antibiotic was washed out by diluting bacteria 1:1000 in MHB. Counts of CFU for all cultures were obtained after washing. Aliquots (100 μL) of bacteria were removed every hour (for 10 hours), serially diluted in PBS, and plated on TSA plates. TSA plates were incubated for 20 hours at 37°C before CFU values were determined.

[2] = system: methicillin-sensitive Staphylococcus pseudintermedius; test: MBC determination against MSSP clinical isolates; type: cell-based; settings: nine MSSP isolates; for MBC: Staphylococcus pseudintermedius, lowest concentration that killed 50% of isolates, read-out: MBC50
Procedure: (§1) The MBC was determined by plating 5 μL from wells on the 96-well microtiter plate (where the MIC was determined) where no growth was observed onto Tryptic soy agar (TSA) plates. […] The MBC was categorized as the concentration where ≥99% reduction in bacterial cell count was observed.

[3] = system: methicillin-sensitive Staphylococcus pseudintermedius; test: MIC by broth microdilution against MSSP clinical isolates; type: cell-based; settings: for MIC50: lowest concentration inhibiting growth in 50% of isolates; for MIC: read-out: MIC Range
Procedure: (§2) Fifteen isolates of S. pseudintermedius (nine MSSP and six MRSP), identified at the Indiana Animal Disease Diagnostic Laboratory from specimens collected from dogs admitted to the small animal teaching hospital at Purdue University, were included in the study. The specimens were not collected specifically for this research study but were obtained from patients admitted to the hospital for treatment. Clinical specimens were inoculated onto 5% sheep blood agar and incubated at 35°C for 18–24 hours. Standard methods including examination of colony morphology and hemolysis and biochemical tests such as tube coagulase, Voges-Proskauer (VP) and fermentation tests for maltose, trehalose and lactose, were used in addition to matrix-assisted laser desorption ionization time of flight mass spectrometry to identify isolates. Antimicrobial susceptibility was determined by broth microdilution using the SensiTitre (Thermofisher Scientific).
(§3) Bacteria were prepared in phosphate-buffered saline (PBS) until a McFarland standard of 0.5 was achieved. The solution was subsequently diluted 1:300 in Mueller-Hinton broth (MHB) to reach a starting inoculum of 1 × 10^5 colony-forming units (CFU/mL). Bacteria were then transferred to a 96-well microtiter plate. Thiazole compounds and antibiotics were added (in triplicate) to wells in the first row of the microtiter plate and then serially diluted along the vertical axis. […] The MIC was categorized as the concentration where there was no visible growth of bacteria observed.

[4] = system: methicillin-resistant Staphylococcus pseudintermedius; test: MIC by broth microdilution against MRSP clinical isolates; type: cell-based; settings: for MIC50: Staphylococcus pseudintermedius
Procedure: as §2, §3

[5] = system: methicillin-resistant Staphylococcus pseudintermedius; test: MBC determination against MRSP clinical isolates; type: cell-based; settings: for MBC: Staphylococcus pseudintermedius, read-out: MBC50
Procedure: as §1

MRSP SP3 [6] = test: Checkerboard assay of thiazole compounds with oxacillin; type: cell-based, Staphylococcus pseudintermedius; settings: for ƩFIC: combination with oxacillin, ≤ 0.5 synergistic, > 0.5 to ≤ 4.0 indifference, > 4 antagonistic; for relationship with oxacillin: checkerboard assay
Procedure: The relationship between the thiazole compounds and oxacillin was assessed via a standard checkerboard assay. Bacteria (MRSP SP3) equivalent to a McFarland standard of 0.5 were prepared in PBS. The bacteria were next diluted in MHB to achieve a starting cell density of 1 × 10^5 CFU/mL. MHB was transferred to all wells of a 96-well microtiter plate. […] Oxacillin was serially diluted along the abscissa of the microtiter plate while the thiazole compound was serially diluted along the ordinate. The plate was incubated for 22–24 hours at 37°C. The MIC of the test compound in combination with oxacillin was determined as the lowest concentration of each compound/antibiotic where no visible growth of bacteria was observed. The fractional inhibitory concentration index (ƩFIC) was calculated for each combination as described previously. A synergistic relationship was classified as an FIC index less than or equal to 0.5. […]

MRSP (SP3) = test: Multi-step resistance selection; type: cell-based, Staphylococcus pseudintermedius; settings: for shift in the MIC over ten passages: MRSP SP3, ten serial passages; for MIC: Staphylococcus pseudintermedius
Procedure: To assess the ability of MRSP to develop resistance to the thiazole compounds, a multi-step resistance selection experiment was performed, as described elsewhere. The broth microdilution method for MIC determination against a clinical isolate of MRSP (SP3) was repeated for ten passages over a period of ten days. The initial inoculum was prepared to a McFarland standard of 0.5. The solution was subsequently diluted 1:300 in MHB to reach a starting inoculum of 1 × 10^5 CFU/mL. For each subsequent passage, the inoculum for the MIC determination was adjusted to a final density of approximately 5 × 10^5 CFU/mL using the contents of a well containing a subinhibitory concentration of the compound (where bacterial growth was observed from the previous passage). Bacteria were then transferred to a new 96-well microtiter plate.

[7] = system: murine macrophage cell line (J774.A1); test: In vitro cytotoxicity analysis (MTS assay); type: cell-based; settings: 10 μg/mL, J774.A1, two hours
Procedure: Compounds were assayed at concentrations of 5 μg/mL, 10 μg/mL, 20 μg/mL, and 40 μg/mL against a murine macrophage cell line (J774.A1) (ATCC TIB-67, American Type Culture Collection (ATCC), Manassas, VA, USA) to determine the potential toxic effect in vitro. Cells were cultured in Dulbeco’s modified Eagle’s medium (Sigma-Aldrich, St. Louis, MO, USA) with 10% fetal bovine serum (USA Scientific, Inc.) at 37°C with 5% CO2. Controls received DMSO alone at a concentration equal to that in drug-treated cell samples. The cells were incubated with the compounds in a 96-well plate at 37°C and 5.0% CO2 for two hours prior to addition of the assay reagent MTS 3-(4,5-dimethylthiazol-2-yl)-5-(3-carboxymethoxyphenyl)-2-(4-sulfophenyl)-2H-tetrazolium) (Promega, Madison, WI, USA). Absorbance readings were taken using a kinetic ELISA microplate reader (Molecular Devices, Sunnyvale, CA, USA). The quantity of viable cells after treatment with each compound was expressed as a percentage of the control, DMSO.
(§4) All statistical analyses were performed with GraphPad Prism 6.0 (GraphPad Software, La Jolla, CA). Data generated from cytotoxicity analysis of the thiazole compounds against J774.A1 cells and the 260 and 280 nm cell leakage analysis were analyzed using one-way ANOVA, with post hoc Tukey's multiple comparisons test (P < 0.05).

MRSP SP3 [8] = test: Time-kill analysis against MRSP; type: cell-based, Staphylococcus pseudintermedius; settings: 4 × MIC; for time required to completely eliminate MRSP: MRSP SP3, 24 hour incubation at 37°C
Procedure: MRSP SP3 cells in late logarithmic growth phase were diluted to ~1 × 10^6 CFU/mL and exposed to concentrations equivalent to 4 × MIC (in triplicate) of thiazole compounds 1–6 and rifampicin in MHB. Samples (20 μL) were collected after 0, 2, 4, 6, 8, 10, 12, and 24 hours of incubation at 37°C and subsequently serially diluted in PBS. Bacteria were then transferred to TSA plates and incubated at 37°C for 20–24 hours before viable CFU/mL values were determined.

MRSP SP3 [9] = test: Cell membrane disruption (260/280 nm cell leakage) analysis; type: cell-based, Staphylococcus pseudintermedius; settings: MRSP SP3, 30 minutes; one-way ANOVA, Tukey, P ≤ 0.05
Procedure: In order to investigate the antimicrobial effect of the thiazole compounds on the integrity of the bacterial cell membrane, the release of 260 and 280 nm absorbing components was determined spectrophotometrically. […] Untreated MRSP SP3 cells or cells treated with vancomycin (inhibits cell wall synthesis in bacterial cells) served as negative controls. For the release of 260 and 280 nm absorbing material, the bacterial suspension (control) was treated with lysostaphin (in 50 mM Tris-HCl, pH 8.00) for 30 minutes. Lysostaphin was used as a positive control due to its mode of action being the disruption of the cross-linking of the pentaglycin bridges in the cell wall of staphylococci bacteria. The absorbance of cell supernatant at 260 and 280 nm was determined using a spectrophotometer (Jenway 6305). The average OD260 and OD280 values of duplicates of each treatment option were calculated and expressed as the proportion of average OD260 (or OD280) for each treatment option compared to the average OD260 (or OD280) for the positive control (lysostaphin).
as §4

[10] = six MRSP isolates, triplicate, read-out: MIC50

SMILES	Post-antibiotic Effect (MRSP SP3 [1]) [h]	MBC [2] [µg/mL]	MIC50 ([3]; nine MSSP isolates, triplicate) [µg/mL]	MIC ([3]; nine MSSP isolates, triplicate) [µg/mL]	MIC50 [4, 10] [µg/mL]	MBC ([5]; six MRSP isolates) [µg/mL]	ƩFIC (MRSP SP3 [6])	shift in the MIC over ten passages (MRSP (SP3))	MIC (MRSP (SP3); read-out: initial MIC) [µg/mL]	toxicity to murine macrophage cells (MTS assay) [7]	MBC Range [2] [µg/mL]	time required to completely eliminate MRSP (MRSP SP3 [8])	MIC Range ([4]; six MRSP isolates, triplicate) [µg/mL]	relationship with oxacillin (MRSP SP3 [6])	MBC Range ([5]; six MRSP isolates) [µg/mL]	further results
CCC[C@@H]1C[C@@H](C(=O)N[C@@H]([C@H]2O[C@H](SC)[C@H](O)[C@@H](O)[C@H]2O)[C@H](C)Cl)N(C)C1 [Clindamycin, Clindamycin hydrochloride monohydrate, reference compound]	2	0.48	0.48	0.24 to 61.4	0.48	30.7	–	–	–	–	–	–	–	–	–	Post-antibiotic Effect (MRSP SP3 [1]; listed as clindamycin): two hours
C/C(=N\NC(=N)N)c1sc(-c2ccc(-c3ccc(F)cc3)cc2)nc1C [Compound 4]	>9	1.1 (≈ 2.99 µM)	0.73 (≈ 1.99 µM)	0.18 to 2.94 (≈ 0.49 to 8 µM)	–	–	0.63	two-fold increase	1.47 (≈ 4 µM)	not toxic	0.18 to 2.94	12 h	0.37 to 1.47	–	–	MIC50 [4]: 1.47 µg/mL (≈ 4 µM); MBC [5]: 1.47 µg/mL (≈ 4 µM)
C/C(=N\NC(=N)N)c1sc(-c2ccc(-c3ccc(C(F)(F)F)cc3)cc2)nc1C [Compound 5]	8	0.42 (≈ 1.01 µM)	0.42 (≈ 1.01 µM)	–	0.42 (≈ 1.01 µM)	0.42 (≈ 1.01 µM)	0.38	two-fold increase	1.67 (≈ 4 µM)	not toxic	0.21 to 6.67	eight hours	0.21 to 1.67	synergistic	0.21 to 3.34	MIC (MRSP (SP3); read-out: MIC after the second serial passage (stable until the seventh passage)): 3.34 µg/mL (≈ 8 µM); MIC (MRSP (SP3); read-out: MIC at the seventh passage): 6.68 µg/mL (≈ 16 µM); MIC [3]: 0.21 to 1.67 µg/mL (≈ 0.503 to 4 µM)
C/C(=N\NC(=N)N)c1sc(-c2ccc(-c3cccc4ccccc34)cc2)nc1C [Compound 6]	>9	1.06 (≈ 2.65 µM)	0.8 (≈ 2 µM)	0.2 to 1.6 (≈ 0.501 to 4 µM)	0.4 (≈ 1 µM)	0.8 (≈ 2 µM)	0.38	four-fold increase	1.6 (≈ 4 µM)	toxic	0.20 to 3.19	within two hours	0.20 to 1.60	synergistic	0.20 to 1.60	–
CO[C@H]1/C=C/O[C@@]2(C)Oc3c(C)c(O)c4c(O)c(c(/C=N/N5CCN(C)CC5)c(O)c4c3C2=O)NC(=O)/C(C)=C\C=C\[C@H](C)[C@H](O)[C@@H](C)[C@@H](O)[C@@H](C)[C@H](OC(C)=O)[C@@H]1C [Rifampicin, rifampicin, reference compound]	>9	< 0.41	< 0.41	< 0.41	< 0.41	< 0.41	–	–	–	–	<0.41	–	<0.41	–	<0.41	Post-antibiotic Effect (MRSP SP3 [1]; listed as rifampicin): > 9 h; time-kill behaviour (in words) (MRSP SP3 [8]; MRSP SP3): slow bactericidal activity against MRSP SP3 within the first eight hours of the assay before rapid bacterial re-growth
CN[C@H](CC(C)C)C(=O)N[C@H]1C(=O)N[C@@H](CC(N)=O)C(=O)N[C@H]2C(=O)N[C@H]3C(=O)N[C@H](C(=O)N[C@H](C(=O)O)c4cc(O)cc(O)c4-c4cc3ccc4O)[C@H](O)c3ccc(c(Cl)c3)Oc3cc2cc(c3O[C@@H]2O[C@H](CO)[C@@H](O)[C@H](O)[C@H]2O[C@H]2C[C@](C)(N)[C@H](O)[C@H](C)O2)Oc2ccc(cc2Cl)[C@H]1O [vancomycin, vancomycin hydrochloride, reference compound]	–	–	–	–	–	–	–	–	–	–	–	–	–	–	–	absorbance (260 and 280 nm leakage) compared with untreated cells, statistical result (MRSP SP3 [9]): no statistical difference
